{"source": "patent US20160355465A1", "about": "“NOVEL MODIFIED CURCUMINS AND THEIR USES” (THE RESEARCH FOUNDATION OF STATE UNIVERSITY OF NEW YORK, priority 2011, published 2016)", "key": {"[1]": {"tested_on": "collagen in wound tissue", "assay": "collagen fractions (hydroxyproline) in wound tissue of diabetic rats", "type": "in vivo, rat", "settings": "wound tissue day 6", "text": "Biochemical measurements were made on wound tissue 6 days after creating the standardized 6 mm diameter wounds in the various groups of rats including: (1) non-diabetic controls (NDC); (2) Diabetic (DM) rats treated topically with 0.25% curcumin; (3) DM treated with 1% curcumin; (4) DM treated with 0.25% Compound 4, and (5) DM rats treated with 1% Compound 4. The wound tissues from these five different groups were then hydrolyzed (after extraction; see below) to degrade the collagen to individual amino acids, and the amino acid unique to collagen, hydroxyproline, was measured by a commercial colorimetric assay. Prior to hydrolysis, the wound tissues were extracted (at 4° C. to maintain the triple-helical conformation of the collagen molecules) to obtain first the salt-soluble fraction, then the acid-soluble fraction, leaving the insoluble fraction."}, "[2]": {"target": "MMP-3 (Homo sapiens, UniProt P08254)", "sequence (P08254 100-477)": "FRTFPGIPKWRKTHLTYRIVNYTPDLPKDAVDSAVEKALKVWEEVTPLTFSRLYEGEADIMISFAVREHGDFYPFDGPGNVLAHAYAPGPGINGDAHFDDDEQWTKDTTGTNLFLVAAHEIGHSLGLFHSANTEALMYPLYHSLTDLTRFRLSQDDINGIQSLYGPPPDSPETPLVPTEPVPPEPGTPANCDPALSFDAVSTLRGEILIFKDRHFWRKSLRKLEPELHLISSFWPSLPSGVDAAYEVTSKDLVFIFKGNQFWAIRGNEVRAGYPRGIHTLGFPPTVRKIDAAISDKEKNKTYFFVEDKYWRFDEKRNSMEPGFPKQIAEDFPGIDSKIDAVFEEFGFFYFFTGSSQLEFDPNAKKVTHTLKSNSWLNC", "assay": "fluorimetric assay of MMP activity", "type": "biochemical", "settings": "synthetic fluorescent peptide substrate Mca-Lys-Pro-Leu-Gly-Leu-Dpa-Ala-Arg-NH2"}, "[3]": {"target": "T1, MMP-1 (Homo sapiens, UniProt P03956)", "T1 sequence (P03956 100-469)": "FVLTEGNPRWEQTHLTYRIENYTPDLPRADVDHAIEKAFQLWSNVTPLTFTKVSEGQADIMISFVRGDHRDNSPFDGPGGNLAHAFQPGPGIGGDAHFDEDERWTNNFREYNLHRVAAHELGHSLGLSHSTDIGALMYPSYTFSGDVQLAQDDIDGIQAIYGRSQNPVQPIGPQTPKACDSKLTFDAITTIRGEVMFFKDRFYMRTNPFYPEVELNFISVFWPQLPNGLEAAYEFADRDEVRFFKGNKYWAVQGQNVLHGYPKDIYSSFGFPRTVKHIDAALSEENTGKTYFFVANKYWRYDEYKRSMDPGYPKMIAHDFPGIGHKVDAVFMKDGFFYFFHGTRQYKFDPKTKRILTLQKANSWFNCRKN", "assay": "fluorimetric assay of MMP activity", "type": "biochemical", "settings": "synthetic fluorescent peptide substrate Mca-Lys-Pro-Leu-Gly-Leu-Dpa-Ala-Arg-NH2"}, "[4]": {"tested_on": "mosquito bites", "assay": "mosquito bites on the arms of a human subject, topical", "type": "in vivo", "settings": "Example 9", "text": "Mosquitoes are presented with and allowed to bite the left and right arms of a human subject."}, "[5]": {"target": "MMP-13 (Homo sapiens, UniProt P45452)", "assay": "fluorimetric assay of MMP activity", "type": "biochemical", "settings": "synthetic fluorescent peptide substrate Mca-Lys-Pro-Leu-Gly-Leu-Dpa-Ala-Arg-NH2"}}, "data": [{"smiles": "O=C(/C=C/c1ccc(O)cc1)C(C(=O)/C=C/c1ccc(O)cc1)C(=O)Nc1ccccc1", "note": "[Compound 4, 1,7-Bis(4-hydroxyphenyl)-4-N-phenylaminocarbonylhepta-1E, 6E-dien-3,5-dione]", "values": [{"measurement": "Collagen Fractions (%) Acid-soluble", "setting": "[1]; 0.25% topical", "value": 41.7, "unit": "%"}, {"measurement": "Collagen Fractions (%) Insoluble", "setting": "[1]; 0.25% topical", "value": 31.7, "unit": "%"}, {"measurement": "Collagen Fractions (%) Salt-soluble", "setting": "[1]; 0.25% topical", "value": 26.6, "unit": "%"}, {"measurement": "Collagen Fractions (%) Acid-soluble", "setting": "[1]; 1% topical", "value": 29.4, "unit": "%"}, {"measurement": "Collagen Fractions (%) Insoluble", "setting": "[1]; 1% topical", "value": 40.5, "unit": "%"}, {"measurement": "Collagen Fractions (%) Salt-soluble", "setting": "[1]; 1% topical", "value": 30.1, "unit": "%"}, {"measurement": "IC50", "setting": "[2]", "value": "2.9 ± 0.4", "unit": "µM"}, {"measurement": "IC50", "setting": "[3]", "value": "69.8 ± 2", "unit": "µM"}, {"measurement": "itching and healing of mosquito bites compared with Compound 2", "setting": "[4]", "value": "stop itching sooner and heal quicker"}, {"measurement": "IC50", "setting": "[5]", "value": "2.7 ± 0.7", "unit": "µM"}]}]}
